Legend:
[1] = test system: malignant MM cells (MM1s and H929); assay: MTT survival assay of malignant MM cells treated with Bortezomib; format: cell-based; settings: Homo sapiens, 48 hours, read-out: IC50, killing of myeloma cells
Procedure: (§1) Anticancer agents have preferential cytotoxic effects on cancer cells compared to non-malignant cells (such as EPCs). Therefore we tested the effect of BTZ (anti-cancer drug) on the survival of malignant MM cells (MM1s and H929) and on EPCs, in which cells were treated with increasing concentrations of Bortezomib, and the killing effect was evaluated after 48 hours using MTT assay (FIGS. 8A and B). Also EPCs were treated with and without high-dose of BTZ (50 nM) and we measured the in vitro migration of the EPCs towards MM-conditioned media, using a Boyden chamber migration assay, and the number of migrating EPCs was analyzed by flow cytometry (FIG. 8C).

EPCs [2] = assay: MTT survival assay of EPCs treated with agent; format: cell-based; settings: 48 hours; for effect on survival of EPCs: increasing concentrations
Procedure: as §1
Prodrugs such as TC and BPA are inert agents that are not supposed to have effect by them selves on cancer or normal cell survival, but when activated using positron emission and neutrons, respectively, these agents become active drugs and kill the cell that they reside in and adjacent cells next to it. We tested the effect of TC and BPA (prodrugs) on the survival of EPCs, in which cells were treated with increasing concentrations of these, and the killing effect was evaluated after 48 hours using MTT assay (FIGS. 9A and 10A). […] Also EPCs were treated with and without increasing doses of TC and BPA and we measured the in vitro migration of the EPCs towards MM-conditioned media, using a Boyden chamber migration assay, and the number of migrating EPCs was analyzed by flow cytometry (FIGS. 9C and 10C).
These agents have no cytotoxicity effect, to confirm that we tested the effect of LS-542, (as a model of an imaging agent) on survival of EPCs, in which cells were treated with increasing concentrations of these, and the killing effect was evaluated after 48 hours using MTT assay (FIG. 11A). […] Also EPCs were treated with and without increasing doses of LS-542 and we measured the in vitro migration of the EPCs towards MM-conditioned media, using a Boyden chamber migration assay, and the number of migrating EPCs was analyzed by flow cytometry (FIG. 11C).

EPCs [3] = assay: Boyden chamber migration of agent-treated EPCs towards MM-conditioned media; format: cell-based; settings: for effect on migration of EPCs to tumor: increasing doses, towards MM-conditioned media
Procedure: as §1
Prodrugs such as TC and BPA are inert agents that are not supposed to have effect by them selves on cancer or normal cell survival, but when activated using positron emission and neutrons, respectively, these agents become active drugs and kill the cell that they reside in and adjacent cells next to it. We tested the effect of TC and BPA (prodrugs) on the survival of EPCs, in which cells were treated with increasing concentrations of these, and the killing effect was evaluated after 48 hours using MTT assay (FIGS. 9A and 10A). And to confirm the loading of EPCs with TC and BPA, we treated the EPCs with increasing doses of TC and BPA, digested the cells with nitric acid, and used ICP-MS to detect the level of Titanium and boron in the EPCs, respectively (FIGS. 9B and 10B). Also EPCs were treated with and without increasing doses of TC and BPA and we measured the in vitro migration of the EPCs towards MM-conditioned media, using a Boyden chamber migration assay, and the number of migrating EPCs was analyzed by flow cytometry (FIGS. 9C and 10C).
These agents have no cytotoxicity effect, to confirm that we tested the effect of LS-542, (as a model of an imaging agent) on survival of EPCs, in which cells were treated with increasing concentrations of these, and the killing effect was evaluated after 48 hours using MTT assay (FIG. 11A). And to confirm the loading of EPCs with LS-542, we treated the EPCs with increasing doses of LS-542, and the amount of labeling was measure by the mean-flurescence intensity of the dye by flow cytometry (FIG. 11B). Also EPCs were treated with and without increasing doses of LS-542 and we measured the in vitro migration of the EPCs towards MM-conditioned media, using a Boyden chamber migration assay, and the number of migrating EPCs was analyzed by flow cytometry (FIG. 11C).

EPCs [4] = settings: calcein-UV and PI, flow cytometry
Procedure: The effect of Tc on the cell vitality/viability by staining the cells with viability dye (calcein-UV) and propidium iodide (PI) and analyzing by flow cytometry was tested.

SMILES	IC50 [1] [nM]	BTZ concentration up to which EPCs are not sensitive (survival) (EPCs [2])	effect of loading on migration of EPCs towards cancer cells (EPCs [3]; BTZ 50 nM for 2 hrs, MM-conditioned media)	effect on survival of EPCs (EPCs [2])	effect on migration of EPCs to tumor (EPCs [3])	effect on migration of EPCs to conditioned MM media (EPCs [3]; same concentration range, up to 150 μM)	concentration up to which Tc is not toxic to EPCs (EPCs [4])
CC(C)C[C@H](NC(=O)[C@H](Cc1ccccc1)NC(=O)c1cnccn1)B(O)O [BTZ, Bortezomib]	5	up to 50 nM	did not affect the migration of EPCs	–	–	–	–
[Cl-].[Cl-].[Ti+4].c1cc[cH-]c1.c1cc[cH-]c1 [Titanocene]	–	–	–	no effect on the survival	no effect	did not affect the migration of EPCs	up to 150 μM
N[C@@H](Cc1ccc(B(O)O)cc1)C(=O)O [BPA, 4-Borono-L-phenylalanine]	–	–	–	no effect on the survival	no effect	–	–
